Consider 26 compounds from patent US4649145A, “Thiazole derivatives” (Hoechst UK Limited, priority 1982, dated 1987).

One assay concerns gastric acid secretion in the perfused rat stomach. Put plainly: antisecretory activity in the perfused rat stomach (inhibition of histamine- or pentagastrin-stimulated gastric acid secretion). To be noted: Rattus norvegicus, iv, read-out: ID50 (amount of compound required to inhibit the stimulated secretion by 50%). The format is in vivo. Here is the method: Compounds of this invention were tested for antisecretory activity in the perfused rat stomach. The method of Ghosh and Schild, Brit. […] J. […] After the secretion plateau was reached, the test compound was administered i.v. and the amount of compound required to inhibit the stimulated secretion by 50% was determined.
For `CN/C(=N/CCSCc1nc[nH]c1C)NC#N` [Cimetidine, N--cyanoN'--methylN"--{2[(4methyl-5-imidazolyl)methyl-thio]ethyl}guanidin, reference compound], the ED50 was determined as 2.5 mg/kg.

The assay is the same for the next values; noted with them: iv; perfused rat stomach; i.v.; acid secretion stimulated by infusing either histamine or pentagastrin at a constant rate; read-out: ID50 (amount of compound required to inhibit the stimulated secretion by 50%).
Take `NC(N)=Nc1nc(CSCCNC2=NC(=O)C(=Cc3ccco3)N2)cs1` [Compound 85]: the ED50 came out at 0.2 mg/kg. The same measure, in the same setting: with `CCCC=C1NC(NCCSCc2csc(N=C(N)N)n2)=NC1=O` [Compound 88] the figure was 0.1 mg/kg; with `CC(C)C=C1NC(NCCSCc2csc(N=C(N)N)n2)=NC1=O` [Compound 92], 0.07 mg/kg; with `CC=C1NC(NCCSCc2csc(N=C(N)N)n2)=NC1=O` [Compound 87], 0.1 mg/kg. Take `CCCCCCC1NC(NCCSCc2csc(N=C(N)N)n2)=NC1=O` (centres unmarked) [Compound 72]: the ED50 was found to be 0.16 mg/kg. The same measure, in the same setting: the same measure for `NC(N)=Nc1nc(CSCCNC2=NC(=O)C(=Cc3cccnc3)N2)cs1` [Compound 97]: 0.5 mg/kg; for `CCC(C)C1NC(NCCSCc2csc(N=C(N)N)n2)=NC1=O` (centres unmarked) [Compound 70]: 1.5 mg/kg; for `NC(N)=Nc1nc(CSCCNC2=NC(=O)CN2)cs1` [Compound 64]: 0.45 mg/kg. Still for that read-out and setting: the same measure for `NC(N)=Nc1nc(CSCCNC2=NC(=O)C(=Cc3ccc([N+](=O)[O-])cc3)N2)cs1` [Compound 82]: 0.6 mg/kg; for `CCCCC1NC(NCCSCc2csc(N=C(N)N)n2)=NC1=O` (centres unmarked) [Compound 69]: 0.15 mg/kg; for `NC(N)=Nc1nc(CSCCNC2=NC(=O)C(=Cc3ccc(C(F)(F)F)cc3)N2)cs1` [Compound 83]: 3.5 mg/kg.

As to `CCCCCC=C1NC(NCCSCc2csc(N=C(N)N)n2)=NC1=O` [Compound 89], the ED50 came to 0.15 mg/kg.

With `NC(N)=Nc1nc(CSCCNC2=NC(=O)C(=Cc3cccc(Oc4ccccc4)c3)N2)cs1` [Compound 96, 2[2-[(2-Guanidino-4-thiazolyl)]methylthio]ethylamino-5-(3-phenoxybenzylidenyl)-imidazolidin-4-one], the ED50 amounted to 10 mg/kg. The same measure, in the same setting: with `CC1NC(NCCSCc2csc(N=C(N)N)n2)=NC1=O` (centres unmarked) [Compound 65] the figure was 0.7 mg/kg; with `NC(N)=Nc1nc(CSCCNC2=NC(=O)C(c3ccccc3)(c3ccccc3)N2)cs1` [Compound 77], 0.5 mg/kg. On the same count and under the same terms, the same measure for `COc1ccc(C=C2NC(NCCSCc3csc(N=C(N)N)n3)=NC2=O)cc1` [Compound 81]: 1.2 mg/kg; for `NC(N)=Nc1nc(CSCCNC2=NC(=O)C(=CC=Cc3ccco3)N2)cs1` [Compound 86]: 0.02 mg/kg; for `NC(N)=Nc1nc(CSCCNC2=NC(=O)C(Cc3ccccc3)N2)cs1` (centres unmarked) [Compound 74]: 2.5 mg/kg. Consider `NC(N)=Nc1nc(CSCCNC2=NC(=O)C(=Cc3ccccc3)N2)cs1` [Compound 80], for which the ED50 was found to be 0.5 mg/kg. As for `NC(N)=Nc1nc(CSCCNC2=NC(=O)C(=C3CCCCC3)N2)cs1` [Compound 90], the ED50 amounted to 0.18 mg/kg. The same measure, in the same setting: with `CC1(C)NC(NCCSCc2csc(N=C(N)N)n2)=NC1=O` [Compound 78] the figure was 1 mg/kg. The same measure, in the same setting: the same measure for `CCC(C)C=C1NC(NCCSCc2csc(N=C(N)N)n2)=NC1=O` (centres unmarked) [Compound 93]: 0.07 mg/kg; for `CC(C)=C1NC(NCCSCc2csc(N=C(N)N)n2)=NC1=O` [Compound 91]: 0.18 mg/kg; for `CC(C)CC1NC(NCCSCc2csc(N=C(N)N)n2)=NC1=O` (centres unmarked) [Compound 71]: 0.2 mg/kg. Same read-out and setting: with `CCCCC=C1NC(NCCSCc2csc(N=C(N)N)n2)=NC1=O` [Compound 94] the figure was 0.06 mg/kg.
